We go through three molecules from paper PMC10734437, “Differential inhibition of intra- and inter-molecular protease cleavages by antiviral compounds” (Journal of Virology, 2023).

One assay concerns rhinovirus protease. As to conditions: cited from earlier work.
Assay [1] deals with T1, poliovirus 2A protease (Poliovirus type 1, UniProt P03300). As to conditions: read-out: IC50, eIF4G (inter-molecular) cleavage by poliovirus 2A.
Target sequence in this assay (P03300 882-1030 limits assumed): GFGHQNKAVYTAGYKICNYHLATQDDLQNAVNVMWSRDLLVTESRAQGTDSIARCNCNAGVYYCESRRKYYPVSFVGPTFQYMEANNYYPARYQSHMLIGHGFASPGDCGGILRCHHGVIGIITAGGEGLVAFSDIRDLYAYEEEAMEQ
Assay [2] has as its target T1, poliovirus 2A protease.
Target sequence in this assay (P03300 580-1030 limits assumed): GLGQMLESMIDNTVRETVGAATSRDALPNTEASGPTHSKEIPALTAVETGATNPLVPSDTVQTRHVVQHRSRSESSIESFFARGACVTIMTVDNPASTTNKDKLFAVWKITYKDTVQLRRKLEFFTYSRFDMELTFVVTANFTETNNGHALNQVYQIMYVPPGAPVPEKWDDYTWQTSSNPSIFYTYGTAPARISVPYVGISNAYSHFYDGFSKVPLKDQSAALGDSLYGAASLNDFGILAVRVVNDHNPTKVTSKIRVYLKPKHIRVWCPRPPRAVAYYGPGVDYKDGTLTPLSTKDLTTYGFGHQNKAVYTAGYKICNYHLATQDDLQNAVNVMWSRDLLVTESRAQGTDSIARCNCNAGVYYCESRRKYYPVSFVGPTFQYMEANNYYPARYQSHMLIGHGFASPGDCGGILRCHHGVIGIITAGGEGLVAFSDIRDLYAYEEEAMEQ
For assay [3], the target named is T2, EV-D68 2A protease (Human enterovirus D68, UniProt A0A097BW12).
T2 sequence (A0A097BW12 862-1008): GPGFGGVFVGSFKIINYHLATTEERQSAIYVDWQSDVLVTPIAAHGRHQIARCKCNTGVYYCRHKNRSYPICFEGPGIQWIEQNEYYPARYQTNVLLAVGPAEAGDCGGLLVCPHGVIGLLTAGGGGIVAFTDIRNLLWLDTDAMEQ
The experiment in a line: EV-D68 VP1·2A self-processing (intra-molecular cleavage) in translation extracts. Format: biochemical.

The target in assay [4] is T2, EV-D68 2A protease. The experiment in a line: biochemical. The format is biochemical.
A further assay addresses T3, EV-D68 2A N84T mutant (Human enterovirus D68, UniProt Q68T42, N945T).
T3 sequence (Q68T42 553-1008 N945T): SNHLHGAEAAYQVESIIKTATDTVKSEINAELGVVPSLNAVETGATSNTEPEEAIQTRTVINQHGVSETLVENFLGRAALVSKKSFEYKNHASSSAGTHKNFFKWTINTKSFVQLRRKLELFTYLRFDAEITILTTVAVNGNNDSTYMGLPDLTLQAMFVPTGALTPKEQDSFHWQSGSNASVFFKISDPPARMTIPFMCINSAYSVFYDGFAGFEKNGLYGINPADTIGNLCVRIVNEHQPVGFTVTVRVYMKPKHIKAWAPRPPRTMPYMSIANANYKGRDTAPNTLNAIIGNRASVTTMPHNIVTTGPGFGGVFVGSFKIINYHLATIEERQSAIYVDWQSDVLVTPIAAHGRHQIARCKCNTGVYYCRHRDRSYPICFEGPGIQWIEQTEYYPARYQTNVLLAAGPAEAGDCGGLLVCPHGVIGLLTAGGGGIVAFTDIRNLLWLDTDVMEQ
The experiment in a line: EV-D68 VP1·2A N84T (telaprevir resistant mutant) self-processing, pulse chase in translation extracts. The format is biochemical.

For a further assay, the target named is poliovirus 3C protease (Poliovirus type 1, UniProt P03300). The experiment in a line: biochemical. Format: biochemical.
poliovirus 3C protease, sequence (P03300 1457-1748 limits assumed): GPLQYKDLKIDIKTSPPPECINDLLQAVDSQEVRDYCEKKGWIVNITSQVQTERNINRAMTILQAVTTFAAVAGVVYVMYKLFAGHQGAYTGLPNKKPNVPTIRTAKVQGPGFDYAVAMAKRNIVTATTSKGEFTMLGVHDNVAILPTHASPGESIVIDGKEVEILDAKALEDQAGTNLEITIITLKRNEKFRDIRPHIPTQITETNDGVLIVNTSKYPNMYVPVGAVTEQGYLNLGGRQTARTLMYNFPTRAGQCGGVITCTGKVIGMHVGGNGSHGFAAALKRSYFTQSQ
The next assay concerns the target EV-D68 3C protease (Human enterovirus D68, UniProt Q68T42). The format is biochemical.

The structures appear in SMILES notation. Where two headings read alike, the source gives them in different places. Residues, ends and D or L forms follow the SMILES beside them. *: point of attachment. Cbz = O=C(OCc1ccccc1)*; CH2F = FC*

EV-D68 3C protease, sequence (Q68T42 1438-1731 limits assumed): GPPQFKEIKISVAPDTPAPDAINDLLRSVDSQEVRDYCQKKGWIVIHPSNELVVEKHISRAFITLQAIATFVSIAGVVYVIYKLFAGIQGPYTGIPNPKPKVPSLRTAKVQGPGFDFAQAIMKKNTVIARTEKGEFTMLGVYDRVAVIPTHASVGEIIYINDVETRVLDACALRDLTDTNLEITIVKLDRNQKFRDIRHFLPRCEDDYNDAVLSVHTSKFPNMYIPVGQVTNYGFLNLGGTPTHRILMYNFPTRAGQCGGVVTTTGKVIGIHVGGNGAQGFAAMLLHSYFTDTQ

For the molecule `CSCCC(NC(=O)C(C)NC(=O)C(NC(=O)OCc1ccccc1)C(C)C)C(=O)CF` (stereo not drawn) [zVAM.fmk] (Cbz-Val-Ala-Met-CH2F; configuration not given here), the “concentration of optimal effects on rhinovirus VP1·2A precursor processing and eIF4G cleavage” value in the assay with rhinovirus protease is reported as 200 µM. Also, the IC50 on poliovirus 2A protease [1] is 18.9 µM; on poliovirus 2A protease [2] (read-out: IC50, Poliovirus VP1·2A (intra-molecular) cleavage) it was 1570 µM; on poliovirus 2A protease [2] (read-out: IC50, intra-molecular poliovirus VP1·2A cleavage), around 1600 µM. Besides, the “inhibition of VP1·2A cis cleavage, pulse chase” value against poliovirus 2A protease [2] is listed as “significant inhibition”.

With `CCC[C@H](NC(=O)[C@@H]1[C@H]2CCC[C@H]2CN1C(=O)[C@@H](NC(=O)[C@@H](NC(=O)c1cnccn1)C1CCCCC1)C(C)(C)C)C(=O)C(=O)NC1CC1` [Telaprevir], the “rate of VP1·2A self-processing, pulse chase, WT construct” value on EV-D68 2A protease [3] (1 µM telaprevir) is given as “significantly decreased”. Besides, on EV-D68 2A protease [3] (1-µM telaprevir, maximum concentration testable), the “inhibition of intra-molecular processing of VP1·2A” value stood at 20%. For the same molecule, the “fold higher IC50 for intra-molecular VP1·2A cleavage than for inter-molecular eIF4G cleavage” value at EV-D68 2A protease [3] (EV-D68 2A) is given as “more than 20 fold”. In addition, the IC50 at EV-D68 2A protease [3] (approximate, translation extracts, drug added at initiation of translation) was 3.96 µM; against EV-D68 2A protease [4] (IC50, eIF4G (inter-molecular) cleavage by EV-D68 2A), 0.19 µM; against EV-D68 2A protease [4] (IC50, inter-molecular cleavage of eIF4G by EV-D68 2A), around 0.2 µM. At EV-D68 2A protease [4], the “inhibition of inter-molecular processing of eIF4G” value is “fully inhibited”. For the same molecule, the “N84T mutant self-processing, pulse chase in the presence of telaprevir” value on EV-D68 2A N84T mutant was “not inhibited”.

In the case of `CCOC(=O)/C=C/[C@H](C[C@@H]1CCNC1=O)NC(=O)[C@@H](CC(=O)[C@@H](NC(=O)c1cc(C)on1)C(C)C)Cc1ccc(F)cc1` [Rupintrivir], at poliovirus 3C protease, the “inhibition of poliovirus 3ABC processing, concentration curve” value is given as “near-complete inhibition” and the “inhibition of self-processing, poliovirus inter-molecular 3ABC processing, pulse chase” value is given as around 100%. Besides, the IC50 against poliovirus 3C protease (IC50, Poliovirus 3ABC (inter-molecular) cleavage) was 0.76 µM. At poliovirus 3C protease (IC50, inter-molecular cleavage of poliovirus 3ABC), this molecule displayed an IC50 of around 0.76 µM. For the same molecule, at EV-D68 3C protease, the “inhibition of EV-D68 3ABC processing, concentration curve” value is “near-complete inhibition” and the “inhibition of self-processing, EV-D68 intra-molecular 3ABC processing, pulse chase” value is on record as around 100%.

Usually IC50 stands for the point on the concentration scale where inhibition reaches its midpoint.
